Consider one compound from patent US8138191B2, “Inhibitor compounds and cancer treatment methods” (Critical Outcome Technologies Inc., priority 2007, dated 2012).

Structures are written as SMILES.

Data set [1] concerns PI3K activity in DMS114 cells. The experiment in a line: PI3-K activity (PIP3 detection, Echelon kit), DMS114. The settings on record: DMS114, 250 nM COTI-2 alone, 20 minutes. The format is cell-based, human. The source says: As a negative control, an equivalent volume of DMSO was utilized. […] To measure PI3-K activity, a commercial kit was purchased from Echelon. Following the procedures recommended by the manufacturer, membrane lipids were extracted in several steps and the resulting PIP3 was immobilized to nitrocellulose and measured by its interaction with a PH-domain containing protein and HRP-conjugated antibody supplied with the kit. As an additional control in these experiments, the specific PI3-K inhibitor, LY294002 was used to inhibit PI3-K and thus stop PIP3 production.

In another data set the test system is A460. The experiment in a line: in vitro IC50 against cancer cell lines, A460. The class given is cell-based. The settings on record: Homo sapiens, 72 h; A460, NSCLC, 3 days. How it is done: Briefly, cells were plated in plastic tissue culture plates and grown under standard conditions for each cell line, in carbon dioxide/oxygen atmosphere in plastic tissue culture plates, in the presence of COTI-2 or COTI-219 compounds at 35° C. for 3 days. Control cultures were treated with vehicle minus compound. Cells were counted after 3 days in culture and at a cell density of no more than 80%. The following cell lines, obtained from the National Cancer Institute, were tested: human SCLC cell lines DMS153, DMS114, SHP77; human NSCLC cell lines H226, A460, A560; human breast cancer cell lines T47D, MCF7; human colon cancer cell line HT29; and, human Leukemia cell lines K562, HL60.

The target of another data set is T1, P-glycoprotein (Homo sapiens, UniProt P08183).
T1 construct: endogenous in cells; host or cells: TC7 cells
T1 sequence (P08183 whole entry): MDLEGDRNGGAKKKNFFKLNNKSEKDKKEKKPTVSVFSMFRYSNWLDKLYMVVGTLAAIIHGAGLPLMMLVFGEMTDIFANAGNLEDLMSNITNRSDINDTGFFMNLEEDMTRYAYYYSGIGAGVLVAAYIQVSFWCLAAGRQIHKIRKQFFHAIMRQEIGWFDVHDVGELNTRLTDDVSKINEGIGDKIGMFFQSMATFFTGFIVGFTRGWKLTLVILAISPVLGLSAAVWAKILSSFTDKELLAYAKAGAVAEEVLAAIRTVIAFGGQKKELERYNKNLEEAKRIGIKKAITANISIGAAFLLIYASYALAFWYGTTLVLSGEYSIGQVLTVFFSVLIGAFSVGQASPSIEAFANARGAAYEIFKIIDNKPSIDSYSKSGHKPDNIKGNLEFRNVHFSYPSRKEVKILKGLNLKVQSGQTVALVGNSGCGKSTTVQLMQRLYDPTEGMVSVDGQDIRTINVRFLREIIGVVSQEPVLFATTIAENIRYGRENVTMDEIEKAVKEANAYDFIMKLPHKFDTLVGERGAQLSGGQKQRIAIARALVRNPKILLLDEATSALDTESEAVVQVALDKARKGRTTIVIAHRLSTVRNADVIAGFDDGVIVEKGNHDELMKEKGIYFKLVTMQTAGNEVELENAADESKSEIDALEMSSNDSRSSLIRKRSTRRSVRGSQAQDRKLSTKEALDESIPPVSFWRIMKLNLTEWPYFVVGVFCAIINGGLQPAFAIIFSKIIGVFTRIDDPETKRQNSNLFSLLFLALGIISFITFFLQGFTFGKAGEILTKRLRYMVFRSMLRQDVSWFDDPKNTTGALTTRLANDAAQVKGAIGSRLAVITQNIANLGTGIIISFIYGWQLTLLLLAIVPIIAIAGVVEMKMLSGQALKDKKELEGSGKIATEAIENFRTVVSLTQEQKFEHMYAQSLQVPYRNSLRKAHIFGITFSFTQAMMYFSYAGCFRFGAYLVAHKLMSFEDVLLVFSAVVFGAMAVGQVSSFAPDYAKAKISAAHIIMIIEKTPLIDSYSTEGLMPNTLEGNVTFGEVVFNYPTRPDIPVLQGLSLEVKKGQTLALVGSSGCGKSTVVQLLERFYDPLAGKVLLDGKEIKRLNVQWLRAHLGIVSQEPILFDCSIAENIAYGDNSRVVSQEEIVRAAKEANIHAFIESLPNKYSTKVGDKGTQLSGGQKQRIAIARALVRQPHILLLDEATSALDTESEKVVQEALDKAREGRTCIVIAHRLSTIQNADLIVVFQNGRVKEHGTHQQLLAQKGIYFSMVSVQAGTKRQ
In words: P-glycoprotein inhibition (TC7, 3H-digoxin substrate). The class given is in vitro ADME.

For data set [2], the system named is AKT1, AKT2, AKT3 expression in a panel of cell lines. In words: Correlation between AKT isoform expression and COTI-2 IC50 in a panel of cell lines. Conditions: corrected for total AKT expression. The class given is cell-based, human. From the text: Cell cultures were maintained under regular tissue culture conditions and passaged 1-2 times a week as recommended by ATCC. For siRNA experiments the manufacturer's conditions for growth and transfection were followed. All siRNA reagents for AKT and AKT2 transfections were obtained from Cell Signaling.
Routine laboratory methods were employed for the production of cellular lysates, protein quantification, SDS-PAGE and western blotting. All antibodies were obtained from Cell Signaling and Abcam. To determine total AKT & AKT2 in DMS114 cells, 5×10^4 cells were incubated for 48 h with 10-100 ng of AKT2 siRNA or a scrambled control oligonucleotide. Cells were lysed and 50 μg of protein was separated by SDS-PAGE and blotted with antibody to total AKT or AKT2.
The expression of AKT1, AKT2, AKT3, total AKT and β-actin were examined in a panel of cell lines representing various types of cancers, with the aim of determining if a correlation exists with the pre-determined IC50's for these cell lines. […] The down-regulation of AKT2 prior to the addition of COTI-2 was confirmed with western blotting in DMS114 cell lines using an antibody to AKT2 (FIG. 35).

Data set [3] relates to Akt kinase activity in DMS-114 cells. The experiment in a line: Akt kinase activity (immunoprecipitated Akt, GSK-3 phosphorylation), DMS-114. The settings on record: DMS-114, 250 nM, 8 hrs.
Data set [4] in a line: Metabolic Stability (liver microsomes, monkey, Cynomolgus). The settings on record: 1.0E−06 M, 60 min. The format is in vitro ADME. As for the experimental part: Metabolic stability was determined in human (mixed gender and pool of 50) monkey (male Cynomolgus, pool of 6 or more), dog male, beagle, pool of 4 or more) and rat (male Sprague-Dawley, pool of 100 or more) liver microsomes. […] Four reference substrates (1 μM) were tested simultaneously with COTI-2. […] Peak areas corresponding to COTI-2 were recorded by HPLC-MS/MS. Metabolic stability, expressed as percent of COTI-2 remaining, was calculated by comparing the peak area of COTI-2 at 60 min to time zero.
A general note: Liver microsomes are a subcellular fraction often used to study metabolism.

A further data set addresses CYP3A (Homo sapiens, UniProt P08684). In words: in vitro. Conditions: both.
For another data set, the system named is MCF-7 cells. In words: Sensitivity to COTI-2 after PTEN siRNA knockdown (alamar Blue), MCF-7. The format is cell-based, human. The settings on record: MCF-7, 48 h post-transfection. As for the experimental part: Briefly, HeLa and MCF-7 cells were transfected with 100 nM PTEN siRNA or control non-targeted siRNA at 48 or 144 h prior to exposure to various concentrations of COTI-2.
To assess the capacity of transient siRNA transfection to alter the ability of cells to proliferate in the presence or absence of COTI-2, HeLa or MCF-7 cells (both PTEN-positive) were plated in T25 flasks and transfected 24 h later with PTEN siRNA or non-targeting control siRNA (100 nM in both cases), using Oligofectamine Reagent (Invitrogen) according to the manufacturer's instructions and as previously described (J Pharmacol Exp Ther, 322:123-132). […] PTEN and 18S rRNA mRNA levels were determined by semi-quantitative reverse transcription PCR. […]
For determination of drug sensitivity, HeLa and MCF-7 cells (transfected with PTEN siRNA or control, non-targeted siRNA 48 or 144 hours prior) were re-plated in 96-well plates (VWR, Mississauga, ON, Canada) at 1700 (MCF-7) and 1200 (HeLa) cells per well in a volume of 100 μl of DMEM+10% FBS. […] Cells were then grown for 4 days, and viable cell numbers were assessed by the alamar Blue fluorescence assay using a Wallac Victor^2 multilabel counter (PerkinElmer Wallac, Gaithersburg, Md.). […]
Background: Resazurin is reduced to fluorescent resorufin, in cell work by metabolically active cells.

Chain of CYP3A (P08684 2-503): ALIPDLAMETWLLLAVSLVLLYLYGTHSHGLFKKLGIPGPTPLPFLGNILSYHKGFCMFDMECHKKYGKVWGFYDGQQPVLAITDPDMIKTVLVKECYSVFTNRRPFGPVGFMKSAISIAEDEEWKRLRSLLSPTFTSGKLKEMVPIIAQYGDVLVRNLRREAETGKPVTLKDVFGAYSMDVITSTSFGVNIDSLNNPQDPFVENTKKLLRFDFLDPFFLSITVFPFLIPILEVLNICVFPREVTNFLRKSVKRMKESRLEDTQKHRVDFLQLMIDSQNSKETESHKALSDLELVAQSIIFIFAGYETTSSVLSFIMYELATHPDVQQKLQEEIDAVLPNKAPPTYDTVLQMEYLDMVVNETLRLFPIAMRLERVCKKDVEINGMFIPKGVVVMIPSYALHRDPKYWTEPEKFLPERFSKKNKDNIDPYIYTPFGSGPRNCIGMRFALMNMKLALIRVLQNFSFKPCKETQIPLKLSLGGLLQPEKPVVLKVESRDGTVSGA

In the case of `S=C(N/N=C1/CCCc2cccnc21)N1CCN(c2ccccn2)CC1` [COTI-2], the “increase in PI3K activity (PIP3 levels)” value in data set [1] is listed as “approximately 25%”. Also, the half-inhibitory concentration (IC50) is 7.9 µM in the data set with A460 and 39 µM at P-glycoprotein (TC-7, radiolabelled digoxin, read-out: IC50, Pgp inhibition). Besides, the nH at P-glycoprotein (P-glycoprotein Inhibition, TC7, 3H-digoxin substrate) stood at 0.5. Besides, in data set [2], the “correlation of AKT2 expression with COTI-2 IC50” value is “inversely correlated”. The Akt kinase activity entry in data set [3] is recorded as “below the threshold for measurement”. In addition, in data set [4], the “Mean Parent Remaining” value came to 2%. Also, the inhibition at 15 min, 10 µM against CYP3A (human liver microsomes, pH 7.4, probe midazolam (10 µM)) is 7%; on CYP3A (liver microsomes, pH 7.4, probe midazolam), below 50%. In the data set with MCF-7 cells, the “resistance to COTI-2 after PTEN siRNA transfection” value is listed as “significant increase in the resistance”.

As usually defined, the IC50 is the concentration at which inhibition is half-maximal. The inhibition is how much of the control response was suppressed.
